Assay results published in patent US7678918B2, “Intermediates for imidazonaphthyridines” (3M Innovative Properties Company, priority 1997, dated 2010).

Columns and labels:
TNF = experiment: Cytokine Induction in Human Cells: tumor necrosis factor (TNF) secreted by PBMCs, ELISA; format: cell-based; details: 18 to 24 hours
Text: (§1) An in vitro human blood cell system was used to assess cytokine induction by compounds of the invention. Activity is based on the measurement of interferon and tumor necrosis factor (ℑ) (IFN and TNF, respectively) secreted into culture media as described by Testerman et. al. In “Cytokine Induction by the Immunomodulators Imiquimod and S-27609”, Journal of Leukocyte Biology, 58, 365-372 (September, 1995). Blood Cell Preparation for Culture
(§2) Whole blood is collected by venipuncture into EDTA vacutainer tubes from healthy human donors. Peripheral blood mononuclear cells (PBMCs) are separated from whole blood by Histopaque®-1077 (Sigma Chemicals, St. Louis, Mo.) density gradient centrifugation. The PBMCs are suspended at 1.5-2×10^6 cells/mL in RPMI 1640 medium containing 10% fetal bovine serum, 2 mM L-glutamine and 1% penicillin/streptomycin solution (RPMI complete). 1 mL portions of PBMC suspension are added to 24 well flat bottom sterile tissue culture plates.
(§3) The compounds are solubilized in dimethyl sulfoxide (DMSO). The DMSO concentration should not exceed a final concentration of 1% for addition to the culture wells. The compounds are generally tested in a concentration range of from 0.1 to 100 μM.
(§4) The solution of test compound is added to the wells containing 1 mL of PBMCs in media. The plates are covered with plastic lids, mixed gently and then incubated for 18 to 24 hours at 37° C. with a 5% carbon dioxide atmosphere.
(§5) Following incubation the plates are centrifuged for 5-10 minutes at 1000 rpm (˜200×g) at 4° C. The cell culture supernatant is removed with a sterile polypropylene pipet and transferred to a 2 mL sterile cryotube. Samples are maintained at −70° C. until analysis.
Tumor necrosis factor (ℑ) (TNF) concentration is determined using an ELISA kit available from Genzyme, Cambridge, Mass. The results are expressed as pg/mL.

IFN = experiment: Cytokine Induction in Human Cells: interferon (IFN) secreted by PBMCs, A549/encephalomyocarditis bioassay; format: cell-based; details: 18 to 24 hours
Text: as §1, §2, §3, §4, §5
Interferon is determined by bioassay using A549 human lung carcinoma cells challenged with encephalomyocarditis. The details of the bioassay method have been described by G. L. Brennan and L. H. Kronenberg in “Automated Bioassay of Interferons in Micro-test Plates”, Biotechniques, June/July 78, 1983, incorporated herein by reference. Briefly stated the method is as follows: A549 cells are incubated with samples and standard interferon dilutions at 37° C. for 24 hours. The incubated cells are then infected with an inoculum of encephalomyocarditis virus. The infected cells are incubated for an additional 24 hours at 37° C. before quantifying for viral cytopathic effect. The viral cytopathic effect is quantified by staining followed by visual scoring of the plates. Results are expressed as alpha reference units/mL based on the value obtained for NIH Human Leukocyte IFN standard.
Further: call rule not given here.

Row | Compound | TNF induction (TNF; Dose Concentration 0.1 μM) | TNF induction (TNF; Dose Concentration 1.0 μM) | TNF induction (TNF; Dose Concentration 10.0 μM) | TNF induction (TNF; Dose Concentration 100.0 μM) | IFN induction (IFN; Dose Concentration 0.1 μM) | IFN induction (IFN; Dose Concentration 1.0 μM) | IFN induction (IFN; Dose Concentration 10.0 μM) | IFN induction (IFN; Dose Concentration 100.0 μM)
1 | CCCCc1nc2c(N)nc3cccnc3c2n1CCCCNC(=O)c1ccc(N2CCOCC2)nc1 [Example 106, N^1-[4(4-Amino-2-butyl-1H-imidazo[4,5-c][1,5]naphthyridin-1-yl)butyl]-6-morpholinonicotinamide] | − | + | + | − | + | + | + | −
2 | CCCCc1nc2c(N)nc3cccnc3c2n1CCCCNC(=O)c1ccc2ncccc2c1 [Example 107, N^1-[4-(4-Amino-2-butyl-1H-imidazo[4,5-c][1,5]naphthyridin-1-yl)butyl]-6-quinolinecarboxamide] | − | + | + | − | + | + | + | −
3 | CCCCc1nc2c(N)nc3cccnc3c2n1CCCCNC(=O)c1ccc(C(=O)c2ccccc2)cc1 [Example 113, N^1-[4-(4-Amino-2-butyl-1H-imidazo[4,5-c][1,5]naphthyridin-1-yl)butyl]-4-benzoylbenzamide] | − | + | + | + | − | + | + | +
4 | CCCCc1nc2c(N)nc3cccnc3c2n1CCNS(C)(=O)=O [Example 116, N^1-[4-(4-Amino-2-butyl-1H-imidazo[4,5-c][1,5]naphthyridin-1-yl)ethyl]methanesulfonamide] | − | + | + | + | − | + | + | +
5 | CCCCc1nc2c(N)nc3cccnc3c2n1CCNS(=O)(=O)c1ccccc1 [Example 117, N^1-[4-(4-Amino-2-butyl-1H-imidazo[4,5-c][1,5]naphthyridin-1-yl)ethyl]benzenesulfonamide] | − | − | + | + | − | − | + | +
6 | CCCCc1nc2c(N)nc3cccnc3c2n1CCNC(=O)C1(c2ccc(Cl)cc2)CCCC1 [Example 119] |  | − | − | − |  | − | − | −
7 | CCCCc1nc2c(N)nc3cccnc3c2n1CCNC(=O)COCc1ccccc1 [Example 121] |  | + | + | + |  | + | + | +
8 | CCCCc1nc2c(N)nc3cccnc3c2n1CCNC(=O)CCCCCCCCC(=O)OC [Example 122] |  | − | + | + |  | − | + | +
9 | CCCCc1nc2c(N)nc3cccnc3c2n1CCNC(=O)CC1CCCC1 [Example 124] |  | − | + | + |  | + | + | +
10 | CCCCc1nc2c(N)nc3cccnc3c2n1CCNC(=O)c1cc(C(F)(F)F)cc(C(F)(F)F)c1 [Example 125] |  | − | + | + |  | + | + | +
11 | CCCCc1nc2c(N)nc3cccnc3c2n1CCNC(=O)c1c(OC)cccc1OC [Example 128] |  | − | ± | + |  | ± | + | +
12 | CCCCc1nc2c(N)nc3cccnc3c2n1CCNC(=O)c1ccc(F)cc1 [Example 129] |  | + | + | + |  | + | + | +
13 | CCCCc1nc2c(N)nc3cccnc3c2n1CCNC(=O)CC(C)(C)C [Example 135] |  | − | + | + |  | − | + | +
14 | CCCCc1nc2c(N)nc3cccnc3c2n1CCNC(=O)C1CC1 [Example 136] |  | − | + | + |  | + | + | +
15 | CCCCc1nc2c(N)nc3cccnc3c2n1CCNC(=O)C1CCCC1 [Example 137] |  | − | ± | + |  | + | + | +
16 | CCCCc1nc2c(N)nc3cccnc3c2n1CCNC(=O)CCC1CCCC1 [Example 138] |  | + | + | + |  | + | + | +
17 | CCCCc1nc2c(N)nc3cccnc3c2n1CCNC(=O)c1ccc(C#N)cc1 [Example 139] |  | − | + | + |  | + | + | +
18 | CCCCc1nc2c(N)nc3cccnc3c2n1CCNC(=O)c1c(C)cc(C)cc1C [Example 143] |  | − | ± | − |  | − | + | +
19 | CCCCc1nc2c(N)nc3cccnc3c2n1CCNC(=O)c1ccccc1OC [Example 144] | − | + | + | + | + | + | + | +
20 | CCCCc1nc2c(N)nc3cccnc3c2n1CCNC(=O)CCCCC(=O)OC [Example 145] | − | + | + | + | − | − | + | +
